# Assays:
# [1] = FIH study, SAD part: plasma pharmacokinetics after single oral dose; conditions: all blood samples of subjects that received IMB-1018972
# Experimental: (§2) Each subject participated in only 1 group during the study.
# (§3) The blood samples were taken via an indwelling intravenous catheter or by direct venipuncture. The exact times of blood sampling were recorded in the eCRF.
# [2] = FIH study: safety and tolerability (adverse events, laboratory, vital signs, ECG)
# Experimental: AEs were recorded from (first) admission until completion of the follow-up visit. Any clinically significant observations in results of clinical laboratory, 12-lead ECGs, vital signs, or physical examinations were recorded as AEs.
# A treatment-emergent AE (TEAE) was defined as any event not present prior to (the first) administration of the study drug or any event already present that worsened in either severity or frequency following exposure to the study drug.
# The severity of the AEs was rated as mild, moderate, or severe; the relationship between the AEs and the study drug was indicated as none, unlikely, possibly, likely, or definitely. Adverse events assessed as possibly, likely, or definitely were considered related to the study drug; AEs assessed as none or unlikely were considered not related to the study drug.
# The ECG was recorded using an ECG machine equipped with computer-based interval measurements (with no/minimal disturbance by procedures). The following ECG parameters were recorded: heart rate, PR-interval, QRS-duration, QT-interval, QTcF-interval, and the interpretation of the ECG profile by the Investigator.
# [3] = 28-day dog toxicity study (NOAEL and exposure); assay type: in vivo; conditions: from HED
# Experimental: Based on the nonclinical toxicology data, it was considered that subjects in this clinical study were not at unreasonable risk of adverse effects. […] For a 60-kg individual, the NOAEL dose would be 6480 mg. With a 10-fold safety factor applied, this would allow for a maximum recommended starting dose (MRSD) of 648 mg/day.7,8 The planned starting dose in the current Phase 1 study was 50 mg, equivalent to 0.83 mg/kg/day for a 60-kg subject. This starting dose is less than 10% of the MRSD determined from the dog NOAEL and less than 1% of the dog NOAEL.
# The relevant animal study was the 28-day dog study where the NOAEL for IMB-1018972 was 200 mg/kg/day.
# [4] = test system: myocardial energetics and metabolism; experiment: Pharmacodynamic study in obese patients with Type 2 diabetes (PCr/ATP, myocardial triglyceride, body weight); assay type: in vivo, human
# Experimental: Results of a pharmacodynamic study to evaluate the impact of 200 mg BID of a composition of a compound with formula (X) on rest myocardial energetics (PCr/ATP) in obese individuals with type 2 diabetes are detailed in FIGS. 52-65. The key endpoints of the study were to evaluate the metabolic response, specifically the impact on PDH flux using hyperpolarized ^13C-pyruvate MRS, as a measure of the compound's ability to promote glucose oxidation and recouple glucose oxidation with glycolysis. Also assessed was the effect on cardiac systolic and diastolic function, measured by cardiac magnetic resonance (CMR) and transthoracic echocardiography (TTE), and the effect on cardiac steatosis using ^1H-MRS.
# The primary objective is to evaluate the impact of 200 mg of formula (X) on rest and stress myocardial energetics (PCr/ATP). Other objectives include: to evaluate the metabolic response, specifically the impact on PDH flux using hyperpolarized ^13C-pyruvate MRS, as a measure of the compound's ability to promote glucose oxidation; to assess the effect on cardiac systolic and diastolic function, as measured by cardiac magnetic resonance (CMR) and transthoracic echocardiography (TTE); to measure the impact on myocardial steatosis.
# (§1) This was a randomized study consisting of a population of 20 patients with Type 2 diabetes and a BMI≥30 kg/m^2. The first five patients were treated for four weeks; the subsequent 15 patients (patients 6-20) were treated for eight weeks (with five additional patients prn). Ten patients had hyperpolarized ^13C-pyruvate MRS.
# [5] = Pharmacodynamic study in obese patients with Type 2 diabetes: preliminary safety data; assay type: in vivo, human
# Experimental: as §1
# The preliminary baseline characteristics of randomized participants is detailed in FIG. 52. The preliminary baseline characteristics of completers is detailed in FIG. 53. FIG. 54 details adverse events as of the data cut-off date of September 20. Nineteen patients were on the drug from approximately one to eight weeks. There were no SAEs. Seven subjects reported nine adverse events. Two subjects had three drug-related AEs. All AEs were mild or moderate in severity. […] Overall, the compound was well-tolerated.
# [6] = human, in vivo
# Experimental: as §2, §3
# clinical = conditions: human, in vivo, 50 mg
# Experimental: as §2, §3
# [7] = human, in vivo; remark: listed apart in the source
# Experimental: Subjects received multiple oral doses of an IR formulation of IMB-1018972 or placebo once every 12 hours (q12 h) for 14 consecutive days. Each subject participated in only 1 group during the study.
# The doses were selected based upon the safety, tolerability, and PK data from the SAD part: • Group B1 multiple oral doses of an IR formulation of 150 mg IMB-1018972 (n=9) or matching placebo (n=3) twice daily (q12 h) for 14 days; on Day 14 only a single morning dose was administered • Group B2: multiple oral doses of an IR formulation of 50 mg IMB-1018972 (n=9) or matching placebo (n=3) q12 h for 14 days; on Day 14 only a single morning dose was administered
# Before each morning dose, subjects fasted overnight for at least 10 hours following a snack on the evening before. On Days 1 and 14, subjects received a standardized breakfast that had to be consumed within 20 minutes. Dosing occurred at 30 minutes after the start of breakfast. Following dosing, subjects fasted for 4 hours until lunch. During fasting, fluids other than water were not allowed. On Days 2 to 13, breakfast was not standardized and was given within maximally 1 hour before dosing and consumed before dosing. No fasting after dosing was applicable on these days.
# [8] = 200 mg, combined 4- and 8-week cohorts, interim data
smiles,measurement,setting,value
COc1ccc(CN2CCN(CCOC(=O)c3cccnc3)CC2)c(OC)c1OC [IMB-1018972],IMB-1018972 (parent) in plasma samples,[1],could be measured in only few plasma samples
same,Effect of fed dosing on number and incidence of TEAEs,[2]; FE arm of SAD part,appeared to attenuate the number and incidence of TEAEs
same,"Subjects with TEAEs of flushing, SOC vascular disorders",[2]; MAD part,33.3%
same,"Subjects with TEAEs, SOC general disorders and administration site conditions",[2]; MAD part,27.8%
same,"Subjects with TEAEs, SOC musculoskeletal and connective tissue disorders",[2]; MAD part,27.8%
same,Number of TEAEs of flushing (mild),"[2]; MAD part, 150 mg q12 h",7
same,Subjects with TEAEs considered related to the study drug,"[2]; MAD part, 6 of 18",33.3%
same,Subjects with TEAEs considered not related to the study drug,"[2]; MAD part, 11 of 18",61.1%
same,"Subjects with TEAEs, SOC gastrointestinal disorders",[2]; SAD part,16.7%
same,"Subjects with TEAEs, SOC general disorders and administration site conditions",[2]; SAD part,20.8%
same,"Subjects with TEAEs, SOC nervous system disorders",[2]; SAD part,29.2%
same,"Subjects with TEAEs, SOC skin and subcutaneous tissue disorders",[2]; SAD part,16.7%
same,"Subjects with TEAEs, SOC vascular disorders",[2]; SAD part,29.2%
same,Subjects with drug-related TEAEs of flushing (vascular disorders),[2]; SAD part,25%
same,"Subjects with drug-related TEAEs, nervous system disorders",[2]; SAD part,16.7%
same,Subjects with TEAEs considered related to the study drug,"[2]; SAD part, 7 of 24",29.2%
same,Subjects reporting flushing,"[2]; single 150 mg IMB-1018972, fasted, FE arm",2
same,Subjects reporting flushing,"[2]; single 400 mg IMB-1018972, fasted",Four
same,NOAEL dose for a 60-kg individual,[3],6480 mg
same,Cardiac energetics (PCr/ATP),[4]; [8],significant and meaningful increase
same,Myocardial steatosis (myocardial triglycerides),[4]; [8],highly significant reduction
same,Mean fasting glucose,"[4]; short-term administration, cohorts of the study",significant reduction
same,Body weight,"[4]; short-term administration, combined 4- and 8-week cohorts",significant weight loss
same,Flushing,[5]; nineteen patients on drug,no flushing reported
same,Number of adverse events,[5]; nineteen patients on drug,nine
same,Number of drug-related AEs,[5]; nineteen patients on drug,three
same,Subjects reporting adverse events,[5]; nineteen patients on drug,Seven
same,Subjects with drug-related AEs,[5]; nineteen patients on drug,Two
same,SAEs,[5]; nineteen patients on drug about one to eight weeks,no SAEs
same,Tolerability,[5]; overall,well-tolerated
COc1ccc(CN2CCNCC2)c(OC)c1OC [trimetazidine],Time at which detectable concentrations generally appeared,[6],15 to 30 min
same,Tmax,clinical,8 h
same,"Geometric mean Cmax lower, MAD Day 1 150 mg fed vs SAD single 150 mg fed",[7],32%
